Test results: patent US20250270445A1, “COMPOUNDS AND USES THEREOF IN FIELD OF OPTOELECTRONICS” (Zhejiang Brilliant Optoelectronic Technology Co.,Ltd., priority 2022, published 2025)

Columns and labels:
Format in all cases: physicochemical
[1] = Blue light stability of the film (luminance decay); conditions: about 800 nm evaporated film, blue LED 460 nm, 3000 cd/m^2, versus comparative compound 1
Description: A film about 800 nm was evaporated, encapsulated with a glass cover plate, then placed at 2.5 cm above the blue LED (460 nm, 3000 cd/m^2) to test the luminance value with a luminance meter (Fstar, CS-2000A). The luminance value of the first test was recorded as the initial value, and the luminance was tested by irradiating for a period of time to obtain the luminance decay curve, see FIG. 34.

[2] = Solubility of compounds in toluene
Description: The solubility of the compounds in the toluene were determined as follows: • 1. 1000 mg of toluene solution was placed in the transparent glass sample bottle. • 2. A certain mass of the compound was added into the toluene, and oscillated until completely dissolved. • 3. After the compound was completely dissolved, a certain mass of the compound was further added into the toluene, and oscillated. • 4. The above steps were repeated until the compound wasn't dissolved any more. • 5. The total mass of the compound added was recorded and the solubility was obtained by calculation.

[3] = Absorption spectrum, emission spectrum and extinction coefficient in toluene solution; conditions: for Molar extinction coefficient of the toluene solution: maximum absorption peak
Description: The extinction coefficients of the compounds and their absorption and emission spectrums in the solution were determined as follows: • 1. The compound with a certain amount of substance concentration in the toluene was prepared in a volumetric flask. • 2. The absorption spectrum of the solution was measured by using an ultraviolet-visible spectrophotometer (Puxi T9s) to obtain the absorption peak wavelength. • 3. The absorbance of the maximum absorption peak divided by the amount of substance concentration is the molar extinction coefficient of the compound. • 4. The emission spectrum of the solution was measured by using a fluorescent spectroscope (Hitachi, F-4700 FL Spectrophotometer) to obtain the emission peak wavelength.

[4] = Absorption and emission spectrum in spin-coated film; conditions: spin-coated film
Description: The absorption and emission spectrums of the compounds in the film were determined as follows: • 1. The compound with a certain concentration in the toluene was prepared. • 2. The prepared toluene solution was dropped onto a clean glass substrate. • 3. Spin-coating, and then heating at the 80° C. for 1 min. • 4. The absorption spectrum of the film was measured by using an ultraviolet-visible spectrophotometer (Puxi T9s) to obtain the absorption peak wavelength. • 5. The emission spectrum of the film was measured by using a fluorescent spectroscope (Hitachi, F-4700 FL Spectrophotometer) to obtain the emission peak wavelength.

[5] = UV stability of compounds in toluene (absorbance decay to 80%); conditions: 1×10^−5 mol/L in toluene, UV LEDs 365 nm & 255 nm, time to 80% absorbance, normalized to comparative compound 2 as 100%
Description: The compound was dissolved in the toluene with a concentration of 1×10^−5 mol/L. 3 mL solution was added to the cuvette with a lid and the lid was screwed on tightly, then the cuvette was placed in the ultraviolet-visible spectrophotometer to test the absorption spectrum, the absorbance of the maximum absorption peak was recorded as the initial value. The cuvette was placed at a distance of 12 cm from the UV LEDs (365 nm & 255 nm), irradiated for a period and tested its absorption spectrum, then continued to be irradiated after the test, and repeated until the absorbance decayed to 80% of its initial value, the time was recorded as t80.

SMILES	stability of the film under blue-light illumination (luminance decay) [1]	Solubilities(/100 g, toluene) [2] [g/100 g toluene]	Absorption peak of the toluene solution [3] [nm]	Emission peak of the toluene solution [3] [nm]	Molar extinction coefficient of the toluene solution [3]	Absorption peak of the film [4] [nm]	Emission peak of the film [4] [nm]	Times t80 [5] [%]
CCc1cccc(CC)c1N(c1cc(C(C)(C)C)cc(C(C)(C)C)c1)c1cc(N(c2cc(C(C)(C)C)cc(C(C)(C)C)c2)c2c(CC)cccc2CC)c2ccc3c(N(c4cc(C(C)(C)C)cc(C(C)(C)C)c4)c4c(CC)cccc4CC)cc(N(c4cc(C(C)(C)C)cc(C(C)(C)C)c4)c4c(CC)cccc4CC)c4ccc1c2c43 [compound 8]	obviously improved UV stability	30.1	484	501	5.3 × 10^4 L · mo 1^−1	482	499	261
CCCCCCCCc1ccc(-c2cc(C(C)C)ccc2N(c2cc(F)c(F)c(F)c2)c2cc(N(c3cc(F)c(F)c(F)c3)c3ccc(C(C)C)cc3-c3ccc(CCCCCCCC)cc3)c3ccc4c(N(c5cc(F)c(F)c(F)c5)c5ccc(C(C)C)cc5-c5ccc(CCCCCCCC)cc5)cc(N(c5cc(F)c(F)c(F)c5)c5ccc(C(C)C)cc5-c5ccc(CCCCCCCC)cc5)c5ccc2c3c54)cc1 [compound 13]	–	>15	473	494	5.9 × 10^4 L · mo 1^−1	473	490	410
CC1CCC(C(C)C)C(Oc2ccc(-c3cc(C(C)C)ccc3N(c3cc(F)c(F)c(F)c3)c3cc(N(c4cc(F)c(F)c(F)c4)c4ccc(C(C)C)cc4-c4ccc(OC5CC(C)CCC5C(C)C)cc4)c4ccc5c(N(c6cc(F)c(F)c(F)c6)c6ccc(C(C)C)cc6-c6ccc(OC7CC(C)CCC7C(C)C)cc6)cc(N(c6cc(F)c(F)c(F)c6)c6ccc(C(C)C)cc6-c6ccc(OC7CC(C)CCC7C(C)C)cc6)c6ccc3c4c65)cc2)C1 (stereo not drawn) [compound 15]	–	>10	476	493	6.8 × 10^4 L · mo 1^−1	473	491	440
CCCCCCCCc1ccc(-c2cc(OC)ccc2N(c2cc(F)c(F)c(F)c2)c2cc(N(c3cc(F)c(F)c(F)c3)c3ccc(OC)cc3-c3ccc(CCCCCCCC)cc3)c3ccc4c(N(c5cc(F)c(F)c(F)c5)c5ccc(OC)cc5-c5ccc(CCCCCCCC)cc5)cc(N(c5cc(F)c(F)c(F)c5)c5ccc(OC)cc5-c5ccc(CCCCCCCC)cc5)c5ccc2c3c54)cc1 [compound 16]	–	>10	475	496	7.0 × 10^4 L · mo 1^−1	476	496	383
CCCCCCCCc1ccc(N(c2ccc(C(C)C)cc2-c2cc(F)c(F)c(F)c2)c2cc(N(c3ccc(CCCCCCCC)cc3)c3ccc(C(C)C)cc3-c3cc(F)c(F)c(F)c3)c3ccc4c(N(c5ccc(CCCCCCCC)cc5)c5ccc(C(C)C)cc5-c5cc(F)c(F)c(F)c5)cc(N(c5ccc(CCCCCCCC)cc5)c5ccc(C(C)C)cc5-c5cc(F)c(F)c(F)c5)c5ccc2c3c54)cc1 [compound 20]	–	>10	485	504	5.5 × 10^4 L · mo 1^−1	486	504	528
